Assay results reported in patent publication US5707838A, “Antibiotic produced by Pseudomonas sp. and process for the preparation thereof” (priority 1994, dated 1998).

System: M. gallisepticum (MG) field-isolated strain T
Test: In vivo test on chickens inoculated with M. gallisepticum in right air sacs
Settings: oral, 5 chickens tested, autopsy 7th day

Row | Compound | No. of lesions of right air sacs: -- (1 × 50 mg/kg) | No. of lesions of right air sacs: Moderate to severe (1 × 50 mg/kg) | No. of lesions of right air sacs: Slight (1 × 50 mg/kg) | No. of lesions of right air sacs: -- (1 × 100 mg/kg) | No. of lesions of right air sacs: Moderate to severe (1 × 100 mg/kg) | No. of lesions of right air sacs: Slight (1 × 100 mg/kg) | No. of lesions of right air sacs: -- (1 × 200 mg/kg) | No. of lesions of right air sacs: Moderate to severe (1 × 200 mg/kg) | No. of lesions of right air sacs: Slight (1 × 200 mg/kg)
1 | CN(C)[C@@H]1C(O)=C(C(N)=O)C(=O)[C@@]2(O)C(O)=C3C(=O)c4c(O)ccc(Cl)c4[C@@](C)(O)[C@H]3C[C@@H]12 [CTC, Chlortetracycline] | 1 | 3 | 1 | 2 | 2 | 1 | – | – | –
2 | CC[C@H]1OC(=O)C[C@@H](O)[C@H](C)[C@@H](O[C@@H]2O[C@H](C)[C@@H](O[C@H]3C[C@@](C)(O)[C@@H](O)[C@H](C)O3)[C@H](N(C)C)[C@H]2O)[C@@H](CC=O)C[C@@H](C)C(=O)/C=C/C(C)=C/[C@@H]1CO[C@@H]1O[C@H](C)[C@@H](O)[C@@H](OC)[C@H]1OC [TS, Tylosin] | – | – | – | 1 | 4 | 0 | 0 | 2 | 3
